SMILES strings stand for the structures.

What all share (type): cell-based
Holding throughout (details): hepg2, 24 h

The test system of series [1] is HepG2. The series is described as follows: Cytotoxicity against human HepG2 cells assessed as NBD-PC phospholipid accumulation at 0.1 to 100 uM after 24 hrs by Hoechst 33342 normalization-based fluorescence assay.
The test system of series [2] is HepG2. The series is described as follows: Cytotoxicity against human HepG2 cells assessed as increase in lysosomal beta-hexosaminidase level at 50 to 100 uM after 24 hrs by MUG-based fluorescence assay.
The test system of series [3] is HepG2. The series is described as follows: Cytotoxicity against human HepG2 cells at 100 uM after 24 hrs by Hoechst 33342 staining-based fluorescence assay.
Series [4] concerns HepG2. The series is described as follows: Cytotoxicity against human HepG2 cells assessed as reduction in cell viability after 24 hrs by Neutral red uptake assay.
Series [5] concerns HepG2. Nature of the series: Cytotoxicity against human HepG2 cells assessed as formation of lysosomal inclusion bodies at 50 uM after 24 hrs by transmission electron microscopy.
Series [6] deals with HepG2. The series is described as follows: Cytotoxicity against human HepG2 cells assessed as increase in lysosomal beta-hexosaminidase level at 35 uM after 24 hrs by MUG-based fluorescence assay.
Series [7] concerns HepG2. Nature of the series: Cytotoxicity against human HepG2 cells assessed as disruption of membrane integrity at 20 uM after 24 hrs by LDH release assay.
Series [8] deals with HepG2. The series is described as follows: Cytotoxicity against human HepG2 cells assessed as increase in lysosomal beta-hexosaminidase level at 20 uM after 24 hrs by MUG-based fluorescence assay.
The subject of series [9] is HepG2. Nature of the series: Cytotoxicity against human HepG2 cells assessed as NBD-PC phospholipid accumulation after 24 hrs by Hoechst 33342 normalization-based fluorescence assay.
For series [10], the system named is HepG2. The series is described as follows: Cytotoxicity against human HepG2 cells assessed as reduction in cell viability at >/= 50 uM after 24 hrs by Neutral red uptake assay.
Series [11] relates to HepG2. The series is described as follows: Cytotoxicity against human HepG2 cells assessed as disruption of membrane integrity at 35 uM after 24 hrs by LDH release assay.
For series [12], the system named is HepG2. Nature of the series: Cytotoxicity against human HepG2 cells assessed as disruption of membrane integrity at >= 50 uM after 24 hrs by LDH release assay.
Series [13] has as its system HepG2. Nature of the series: Cytotoxicity against human HepG2 cells assessed as disruption of membrane integrity up to 100 uM after 24 hrs by LDH release assay.
Series [14] relates to HepG2. Nature of the series: Cytotoxicity against human HepG2 cells assessed as reduction in cell viability at 0.1 to 100 uM after 24 hrs by Neutral red uptake assay.
Series [15] relates to HepG2. The series is described as follows: Cytotoxicity against human HepG2 cells assessed as increase in lysosomal beta-hexosaminidase level at 10 to 100 uM after 24 hrs by MUG-based fluorescence assay.
The test system of series [16] is HepG2. Nature of the series: Cytotoxicity against human HepG2 cells assessed as reduction in cell viability at 100 uM after 24 hrs by Neutral red uptake assay.

As for `Clc1ccccc1CNC1CN2CCC1CC2` (stereo unspecified), in the series on HepG2 [1], the Activity result is listed as “Non-toxic”.
As to `Cc1cccc(C)c1C(OCCN(C)C)C1CCCCC1` (stereo unspecified), the Activity entry is on record as “Toxic” in the series on HepG2 [2]; “Toxic” with HepG2 [3]; “Dose-dependent effect” with HepG2 [4]; “Toxic” in the series with HepG2 [5]; “Toxic” with HepG2 [6]; “Non-toxic” with HepG2 [7]. For the same molecule, the Activity result in the series with HepG2 [8] is on record as “Toxic”; in the series on HepG2 [9] it was “Dose-dependent effect”; in the series on HepG2 [10], “Toxic”; in the series with HepG2 [11], “Non-toxic”; with HepG2 [12] it was “Toxic”.
Turning to `CCN(CC)CCNC1=Nc2ccccc2CCC1`, the Activity result is “Toxic” with HepG2 [2], “Toxic” in the series on HepG2 [5] and “Non-toxic” with HepG2 [1].
Consider `OC(CN1CCOCC1)c1csc2ccccc12` (stereo unspecified), for which the Activity entry in the series with HepG2 [13], in the series on HepG2 [1] and in the series with HepG2 [14] was “Non-toxic” in each case.
For the molecule `CCOc1ccc(Br)cc1CNCC1CCNCC1`, the Activity entry in the series with HepG2 [3] is recorded as “Toxic”; in the series on HepG2 [4], “Dose-dependent effect”; in the series with HepG2 [5], “Toxic”; in the series with HepG2 [15], “Toxic”; with HepG2 [9], “Dose-dependent effect”; in the series on HepG2 [10] it was “Toxic”. Also, in the series with HepG2 [12], the Activity entry is “Toxic”.
Consider `CCN(CC)CCNCc1c(OC)ccc2ccccc12`, for which the Activity result in the series on HepG2 [3] is on record as “Non-toxic”; with HepG2 [5], “Toxic”; in the series on HepG2 [15] it was “Toxic”; in the series on HepG2 [9], “Dose-dependent effect”; in the series with HepG2 [16], “Non-toxic”.
As for `COc1ccc(CNCC(O)c2nnn(C)n2)cc1OC` (stereo unspecified), the Activity entry in the series on HepG2 [5] is “Toxic”; in the series with HepG2 [13], “Non-toxic”; with HepG2 [1], “Toxic”; in the series with HepG2 [14] it was “Non-toxic”.
Turning to `c1cc(C[N+]23CN4CN(CN(C4)C2)C3)cs1`, the Activity result in the series on HepG2 [13], in the series with HepG2 [1] and with HepG2 [14] was “Non-toxic” each time.
As to `C1CN(CCN2CCOCC2)CCO1`, the Activity entry in the series on HepG2 [13], in the series with HepG2 [1] and in the series with HepG2 [14] was “Non-toxic” each time.
`CC1=NN(C(=O)c2nn(C)cc2[N+](=O)[O-])C(O)(C(F)(F)F)C1` (stereo unspecified): the Activity result in the series on HepG2 [13], in the series on HepG2 [1] and in the series on HepG2 [14] was “Non-toxic” throughout.
Turning to `CCCCc1oc2ccccc2c1C(=O)c1cc(I)c(OCCN(CC)CC)c(I)c1` [AMIODARONE], the Activity result was “Toxic” with HepG2 [2]; “Toxic” with HepG2 [3]; “Dose-dependent effect” in the series with HepG2 [4]; “Dose-dependent effect” with HepG2 [9]; “Toxic” with HepG2 [12].
Turning to `CN/C(=N/CCSCc1nc[nH]c1C)NC#N` [CIMETIDINE], the Activity result in the series with HepG2 [13], in the series with HepG2 [1] and in the series on HepG2 [14] was “Non-toxic” each time.

(Values after ChEMBL document CHEMBL3407411, “Evaluating the risk of phospholipidosis using a new multidisciplinary pipeline approach” (Eur J Med Chem, 2015).)
